Source: publication PMC9077138, “An investigation on 3-acetyl-7-methoxy-coumarin Schiff bases and their Ru(II) metallates with potent antiproliferative activity and enhanced LDH and NO release” (RSC Advances, 2018)
Where two headings read alike, the source gives them in different places.

Legend:
[1] = test system: S. aureus; assay: In vitro antibacterial assay (zone of inhibition, MIC); assay type: cell-based, Staphylococcus aureus
Protocol: (§1) The free ligands and their cyclometallated ruthenium(II) carbonyl complexes were screened for their in vitro antimicrobial activity against certain pathogenic bacterial and fungal species at three different concentrations using disc diffusion method.
(§2) Antimicrobial activities of [RuHClCO(PPh3)3], ligands H2L^1–4 and new organometallic Ru(II) complexes (1–4) were evaluated by agar well diffusion method[76] as reported, by taking Staphylococcus aureus, Streptococcus pneumonie, Pseudomonas aeruginosa, Salmonella paratyphi and fungus such as Candida albicans, Trichophyton rubrum, Aspergillus niger, Aspergillus fumigatus and Candida tropicalis. The above said all test organisms were obtained from the MTCC, Chandigarh, India and Microbiological laboratory, Coimbatore, Tamil Nadu, India. The antimicrobial activity of the test compounds was checked with various concentrations (25 μg ml^−1, 50 μg ml^−1 and 100 μg ml^−1) against all the test pathogens. Gentamicin and ketoconazole were used as positive controls to study the antibacterial and antifungal activities respectively. Each experiment was performed in triplicate and the results are represented as average zone of inhibition and minimum inhibitory concentration of all the test pathogens.

[2] = test system: S. pneumonie; assay: as above; assay type: cell-based, Streptococcus pneumonie
Protocol: as §1, §2

[3] = test system: P. aeruginosa; assay: as above; assay type: cell-based, Pseudomonas aeruginosa
Protocol: as §1, §2

[4] = test system: S. paratyphi; assay: as above; assay type: cell-based, Salmonella paratyphi
Excerpt: The free ligands and their cyclometallated ruthenium(II) carbonyl complexes were screened for their in vitro antimicrobial activity against certain pathogenic bacterial and fungal species at three different concentrations using disc diffusion method. […] Tested complexes had better antimicrobial activity than the ligands against all pathogens. This may be explained by Tweedy's chelation theory.[61] Coordination of ligands reduce the polarity of the metal ion essentially by partial sharing of its positive charge with the donor groups within the chelate ring system formed during the coordination and leading to the increase in lipophilic nature of the central metal atom, which favours the effective permeation through the lipid layer of microorganism.[61,62] […] When tested against T. rubrum, the activity of the complexes in the order of 3 > 2 > 1 > 4. In antibacterial studies, the complex 3 was effective against S. aureus followed by complex 2, 1 and 4 and in the case of S. pneumonie the activity of the complexes follows the order of 3 > 1 > 4 > 2. […] When tested against S. paratyphi complex 1 stood out as good followed by the complexes 4, 3 and 2 respectively.
as §2

[5] = test system: Aspergillus fumigatus; assay: In vitro antifungal assay (zone of inhibition, MIC); assay type: cell-based
Protocol: as §1, §2

[6] = test system: Aspergillus niger; assay: as above; assay type: cell-based
Protocol: as §1, §2

[7] = test system: Candida tropicalis; assay: as above; assay type: cell-based
Protocol: as §1, §2

[8] = test system: Trichophyton rubrum; assay: as above; assay type: cell-based
Protocol: as §1, §2

[9] = test system: C. albicans; assay: as above; assay type: cell-based, Candida albicans
Protocol: as §1, §2

[10] = test system: human breast cancer cell line MCF-7; assay: MTT cytotoxicity assay; assay type: cell-based; conditions: read-out: IC50 values MCF-7
Excerpt: (§3) The DNA/protein binding studies, antioxidant and antimicrobial studies had shown that the ligands and ruthenium(II) complexes studied here have therapeutic potentials and were subjected to study their anticancer activity. A number of coumarin derivatives have shown considerable anticancer activity against a number of cell lines. All the 3-acetyl-7-methoxy-coumarin-4(N)-substituted thiosemicarbazone ligands, metal precursor [RuHClCO(PPh3)3] and their new cyclometallated Ru(II) complexes were assessed for their cytotoxicity with two human derived cell lines namely human lung carcinoma (A549) and human breast cancer cells (MCF-7) by using MTT assay. For comparison purpose, cisplatin was used as a positive control under identical conditions.
(§4) Cytotoxic activity of the compounds was tested with human lung cancer cell lines A549, human breast cancer cell lines MCF-7 and human normal keratinocyte cells (HaCaT) by using MTT assay, which was done according to the earlier literature methods[77] and IC50 values obtained from nonlinear regression using GraphPad Prism 5.[78] The LDH release[79] and NO release[80] assays of the compounds was evaluated by the earlier reported methods.

[11] = test system: human lung carcinoma cancer cell line A549; assay: MTT cytotoxicity assay; assay type: cell-based; conditions: read-out: IC50 values A549
Excerpt: as §3, §4

[12] = test system: human normal keratinocyte cells (HaCaT); assay: MTT cytotoxicity assay; assay type: cell-based; conditions: 48 h, read-out: IC50 values HaCaT
Protocol: In order to investigate the selectivity of the compounds for cancer cells rather than normal cell lines, the compounds were also screened for their anticancer activity on the human normal keratinocyte cells (HaCaT).
as §4

How did the “Minimum inhibitory concentration (MIC); head: IC50 VALUES” (shortened to “Minimum inhibitory concentration (MIC)”) ([1]; S. aureus) turn out when `CCNC1=N[N+]2=C(C)c3[c](c4ccc(OC)cc4oc3=O)[Ru-4]2([C]#[O+])([P+](c2ccccc2)(c2ccccc2)c2ccccc2)([P+](c2ccccc2)(c2ccccc2)c2ccccc2)[S]1` [Complex 3, [Ru(7MAC-etsc)(CO)(PPh3)2]] was run?
The value was 13.14 ± 0.12 µM.

What about the Zone of inhibition ([1]; S. aureus, 50 µg/ml) of the same compound?
The Zone of inhibition was 12.04±0.60 mm.

And the Zone of inhibition ([1]; S. aureus, 100 µg/ml)?
The Zone of inhibition was 17.14±0.12 mm.

What about the “Minimum inhibitory concentration (MIC)” value ([2]; S. pneumonie) of the same compound?
Its value is 14.85 ± 0.09 µM.

And the Zone of inhibition ([2]; S. pneumonie, 50 µg/ml)?
Its Zone of inhibition is 11.11±0.22 mm.

What about the Zone of inhibition ([2]; S. pneumonie, 100 µg/ml) of the same compound?
The Zone of inhibition was 17.46±0.41 mm.

What about the “Minimum inhibitory concentration (MIC)” value ([3]; P. aeruginosa) of the same compound?
The value was 14.46 ± 0.18 µM.

And the Zone of inhibition ([3]; P. aeruginosa, 50 µg/ml)?
The Zone of inhibition was 13.23±0.52 mm.

What about the Zone of inhibition ([3]; P. aeruginosa, 100 µg/ml) of the same compound?
The Zone of inhibition was 17.34±0.45 mm.

And the Zone of inhibition ([4]; 50 µg/ml)?
The Zone of inhibition was 12.53±0.14 mm.

What about the Zone of inhibition ([4]; 100 µg/ml) of the same compound?
The Zone of inhibition was 17.44±0.27 mm.

What about the “Minimum inhibitory concentration (MIC)” value [5] of the same compound?
The value was 14.44 ± 0.27 µM.

What about the Zone of inhibition ([5]; 50 µg/ml) of the same compound?
The Zone of inhibition was 13.53±0.13 mm.

What about the Zone of inhibition ([5]; 100 µg/ml) of the same compound?
Its Zone of inhibition is 18.31±0.21 mm.

And the “Minimum inhibitory concentration (MIC)” value [6]?
The value was 14.44 ± 0.21 µM.

What about the Zone of inhibition ([6]; 50 µg/ml) of the same compound?
Its Zone of inhibition is 12.73±0.55 mm.

What about the Zone of inhibition ([6]; 100 µg/ml) of the same compound?
The Zone of inhibition was 18.43±0.12 mm.

And the “Minimum inhibitory concentration (MIC)” value [7]?
Its value is 13.37 ± 0.16 µM.

And the Zone of inhibition ([7]; 50 µg/ml)?
Its Zone of inhibition is 13.55±0.34 mm.

And the Zone of inhibition ([7]; 100 µg/ml)?
The Zone of inhibition was 17.91±0.31 mm.

What about the “Minimum inhibitory concentration (MIC)” value [8] of the same compound?
Its value is 14.97 ± 0.31 µM.

And the Zone of inhibition ([8]; 50 µg/ml)?
Its Zone of inhibition is 13.25±0.52 mm.

And the Zone of inhibition ([8]; 100 µg/ml)?
The Zone of inhibition was 17.44±0.61 mm.

What about the “Minimum inhibitory concentration (MIC)” value ([9]; C. albicans) of the same compound?
The value was 13.24 ± 0.16 µM.

And the Zone of inhibition ([9]; C. albicans, 50 µg/ml)?
Its Zone of inhibition is 12.29±0.15 mm.

What about the Zone of inhibition ([9]; C. albicans, 100 µg/ml) of the same compound?
The Zone of inhibition was 17.73±0.21 mm.

And the IC50 ([10]; MTT, 48 h)?
The IC50 was 2.53 ± 0.1 µM.

And the IC50 ([11]; MTT, 48 h)?
Its IC50 is 2.37 ± 0.04 µM.

And the IC50 ([12]; MTT, normal cells)?
The IC50 was greater than 40 µM.

Which zone of inhibition at 50 µg/mL ([1]; Staphylococcus aureus) does the source give for `COc1ccc2cc(/C(C)=N\NC(=S)Nc3ccccc3)c(=O)oc2c1` [H2L^4, ((1E)-1-(1-(7-methoxy-2-oxo-2H-chromen-3-yl)ethylidene) 4(N)-phenylthiosemicarbazone)] here?
The zone of inhibition at 50 µg/mL was 15.4 ± 0.52 mm.

And the zone of inhibition at 100 µg/mL ([1]; Staphylococcus aureus)?
The zone of inhibition at 100 µg/mL was 18.5 ± 0.73 mm.

What about the zone of inhibition at 50 µg/mL ([2]; Streptococcus) of the same compound?
Its zone of inhibition at 50 µg/mL is 12.2 ± 0.43 mm.

And the zone of inhibition at 100 µg/mL ([2]; Streptococcus)?
Its zone of inhibition at 100 µg/mL is 18.1 ± 0.22 mm.

And the zone of inhibition at 50 µg/mL ([3]; Pseudomonas aeruginosa)?
The zone of inhibition at 50 µg/mL was 12.1 ± 0.32 mm.

What about the zone of inhibition at 100 µg/mL ([3]; Pseudomonas aeruginosa) of the same compound?
The zone of inhibition at 100 µg/mL was 17.5 ± 0.65 mm.

What about the zone of inhibition at 50 µg/mL ([4]; Salmonella enterica, 50 µg/ml) of the same compound?
The zone of inhibition at 50 µg/mL was 12.2 ± 0.51 mm.

And the zone of inhibition at 100 µg/mL ([4]; Salmonella enterica, 100 µg/ml)?
Its zone of inhibition at 100 µg/mL is 16.4 ± 0.51 mm.

And the zone of inhibition at 50 µg/mL [5]?
Its zone of inhibition at 50 µg/mL is 11.3 ± 0.33 mm.

And the zone of inhibition at 100 µg/mL [5]?
Its zone of inhibition at 100 µg/mL is 18.22 ± 0.14 mm.

What about the zone of inhibition at 50 µg/mL [6] of the same compound?
The zone of inhibition at 50 µg/mL was 12.5 ± 0.83 mm.

What about the zone of inhibition at 100 µg/mL [6] of the same compound?
The zone of inhibition at 100 µg/mL was 17.3 ± 0.21 mm.

What about the zone of inhibition at 50 µg/mL [7] of the same compound?
Its zone of inhibition at 50 µg/mL is 12.2 ± 0.23 mm.

What about the zone of inhibition at 100 µg/mL [7] of the same compound?
Its zone of inhibition at 100 µg/mL is 19.2 ± 0.32 mm.

What about the zone of inhibition at 50 µg/mL [8] of the same compound?
Its zone of inhibition at 50 µg/mL is 12.4 ± 0.32 mm.

What about the zone of inhibition at 100 µg/mL [8] of the same compound?
Its zone of inhibition at 100 µg/mL is 16.4 ± 0.66 mm.

And the zone of inhibition at 50 µg/mL ([9]; Candida albicans)?
Its zone of inhibition at 50 µg/mL is 12.3 ± 0.21 mm.

And the zone of inhibition at 100 µg/mL ([9]; Candida albicans)?
The zone of inhibition at 100 µg/mL was 17.19 ± 0.15 mm.

What about the IC50 ([10]; Homo sapiens, MCF7, 48 h) of the same compound?
The IC50 was 13.1 ± 0.25 µM.

What about the IC50 ([11]; Homo sapiens, A549, 48 h) of the same compound?
The IC50 was 13.8 ± 0.18 µM.

What about the IC50 ([12]; Homo sapiens, HaCaT) of the same compound?
Its IC50 is greater than 40 µM.
